Test results reported in patent US6337130B1, “Acid-triggered release microcapsules” (Zeneca Limited, priority 1998, dated 2002).

Assay: In vitro release rate evaluation: evaporative weight loss of butylate from microcapsules under vacuum (Cahn RH electrobalance)
Type: physicochemical
Details: 40° C.
Description: This composition was tested in vitro for release rate in the presence of acid as follows: 5.0 grams of formulation were diluted with 25.0 grams of water. Two 1.5 gram aliquots were removed, vacuum filtered onto 0.22 μm filter paper, and placed in a jar (to reduce volatilization of butylate) until the release rate measurement was performed. The remainder of the solution was treated with a concentrated solution of p-toluenesulfonic acid to pH 2.02. The acid treated solution was rolled for 10 minutes after which several 1.5 gram aliquots of the acid treated solution were removed, vacuum filtered onto 0.22 μm filter paper, and placed in a jar (to reduce volatilization butylate) until the release rate measurement was performed.
Release rate studies were conducted employing a Cahn RH electrobalance to monitor the rate of evaporative weight loss of butylate (a model compound with a high vapor pressure) from microcapsules under vacuum. The sample (on the filter paper) was placed on the sample pan of the electrobalance and allowed to equilibrate at 40° C. for 10-15 minutes in the sealed system prior to placing under vacuum. The weight loss, measured with the electrobalance enclosed under vacuum, was recorded on a chart recorder.

For CCSC(=O)N(CC(C)C)CC(C)C [butylate, S-ethyl diisobutyl thiocarbamate], the “release rate of non-encapsulated butylate” value was “The release rate of non-encapsulated butylate was determined to be about 17-19 mg/min”.
